In brackets after ≈: the same amount, converted by molar mass.
Legend:
[1] = Cytotoxicity against human HL60 cells after 48 hrs by MTT assay; type: functional, cell-based; conditions: HL-60, 48 h
[2] = system: Mycolicibacterium smegmatis; test: Bacteriostatic activity against Mycobacterium smegmatis after 96 hrs by resazurin fluorescence assay; type: functional
1A9 = test: Cytotoxicity against human 1A9 cells after 48 hrs by MTT assay; type: functional, cell-based; conditions: 1A9, 48 h

| SMILES | IC50 [1] [µM] | MIC [2] [µM] | IC50 (1A9) [µM] |
| --- | --- | --- | --- |
| N[C@@H](CSC(Cl)=C(Cl)Cl)C(=O)N[C@@H]1[C@@H](O)[C@H](O)[C@@H](CO)O[C@@H]1SC1CCCCC1 | 76 | 250 (≈ 127 µg/mL) | 79 |
| N[C@@H](CSC(Cl)=C(Cl)Cl)C(=O)N[C@@H]1[C@@H](O)[C@H](O)[C@@H](CO)O[C@H]1SC1CCCCC1 | 112 | 250 (≈ 127 µg/mL) | 121 |
| CC(C)(C)OC(=O)N[C@@H](CSC(Cl)=C(Cl)Cl)C(=O)N[C@@H]1[C@@H](O)[C@H](O)[C@@H](CO)O[C@@H]1SC1CCCCC1 | 60 | > 1000 | 103 |
| CC(C)(C)OC(=O)N[C@@H](CSC(Cl)=C(Cl)Cl)C(=O)N[C@@H]1[C@@H](O)[C@H](O)[C@@H](CO)O[C@H]1SC1CCCCC1 | 16.5 | > 1000 | 33 |

From ChEMBL document CHEMBL3399990, “Synthesis of mycothiol conjugate analogues and evaluation of their antimycobacterial activity” (Bioorg Med Chem Lett, 2015)
